Among the test systems are HCC-2998 colon; HCT-15 colon; K-562 leukemia; NCI-H522 lung; OVCAR-4 ovarian; SF-295 CNS; SF-539 CNS; SK-MEL-28 melanoma; SNB-19 CNS; SR leukemia; SW-620 colon; UACC-257 melanoma; NCI-H460 lung; DU-145 prostate; MCF7 breast; PC-3 prostate.
Holding throughout (assay): inhibition of tumour cell growth, NCI panel, 48 h

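96-well plates; 48 h exposure; 5 concentrations. Endpoints by linear interpolation between flanking doses. Not reached: highest tested concentration assigned. TGI is the concentration that stops growth completely.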

Turning to `CC(=O)C1CC2(c3ccccc3)C(=O)c3ccccc3N2O1` (stereo not given), the TGI with HCC-2998 colon, in the assay with HCT-15 colon, in the assay on K-562 leukemia, in the assay on NCI-H522 lung, in the assay on OVCAR-4 ovarian and with SF-295 CNS was more than 100 µM throughout. Further, the TGI in the assay on SF-539 CNS, with SK-MEL-28 melanoma, in the assay on SNB-19 CNS, with SR leukemia, in the assay on SW-620 colon and in the assay with UACC-257 melanoma was more than 100 µM throughout.
As to `C/C(CC(=O)Nc1ccc(C)cc1)=N\NC(N)=S`, the TGI in the assay with HCC-2998 colon, with K-562 leukemia, in the assay on NCI-H460 lung, in the assay on NCI-H522 lung, in the assay with SF-295 CNS and with SF-539 CNS was more than 100 µM throughout. In addition, the TGI in the assay with SK-MEL-28 melanoma, in the assay on SW-620 colon and with UACC-257 melanoma was more than 100 µM each time.
Regarding `CCCN(CCC)C(=O)Cc1c2n(c3ccccc13)CCCc1ccccc1-2`, the TGI in the assay on HCC-2998 colon is 25.9 µM; in the assay on HCT-15 colon, 23.8 µM; with K-562 leukemia it was 37.4 µM; with NCI-H460 lung, 29.3 µM; in the assay with NCI-H522 lung, 25.3 µM; in the assay on OVCAR-4 ovarian, 26.2 µM. In addition, the TGI in the assay with SF-295 CNS amounted to 22.4 µM; in the assay with SF-539 CNS, 28.6 µM; with SK-MEL-28 melanoma it was 29.9 µM; in the assay with SNB-19 CNS it was 27.7 µM; in the assay on SR leukemia, 24.8 µM; with SW-620 colon, 30.2 µM. Moreover, the TGI in the assay on UACC-257 melanoma turned out to be 27 µM.
Consider `CN1C(=O)c2cccc3c([N+](=O)[O-])ccc(c23)C1=O`, for which the TGI in the assay with HCC-2998 colon was 17.4 µM; in the assay on HCT-15 colon it was 11 µM; in the assay with K-562 leukemia, 25 µM; with NCI-H460 lung, 11.7 µM; in the assay with NCI-H522 lung it was 2.91 µM; in the assay on OVCAR-4 ovarian, 25.9 µM. The TGI with SF-295 CNS worked out at 28.1 µM; with SF-539 CNS, 26.2 µM; in the assay on SK-MEL-28 melanoma it was 32.9 µM; in the assay on SNB-19 CNS it was 28 µM; in the assay with SR leukemia, 14 µM; in the assay with SW-620 colon it was 6.12 µM. Besides, the TGI in the assay on UACC-257 melanoma worked out at 21.6 µM.
On to `CCCCNC(=O)C1=C(C)NC(C)=C(C(=O)NCCCC)C1`, for which the TGI in the assay with DU-145 prostate, in the assay with HCC-2998 colon, with HCT-15 colon, with MCF7 breast, in the assay with NCI-H460 lung and in the assay with OVCAR-4 ovarian was more than 100 µM each time. For the same molecule, the TGI with SF-295 CNS, in the assay with SF-539 CNS, with SK-MEL-28 melanoma, with SNB-19 CNS, with SW-620 colon and in the assay with UACC-257 melanoma was more than 100 µM in each case.
With `CSc1ccc2c(cc1=O)C(NC(=O)c1cc(O)c(OC(=O)O)c(O)c1)CCc1cc(O)c(O)c(O)c1-2` (stereo not given), the TGI in the assay with HCC-2998 colon was more than 90 µM; with HCT-15 colon, 34.3 µM; in the assay with K-562 leukemia, 42.3 µM; in the assay on NCI-H460 lung, 49.1 µM; in the assay on NCI-H522 lung, 21.8 µM; with OVCAR-4 ovarian, 40.9 µM. Moreover, the TGI with SF-295 CNS was 36.5 µM; in the assay with SF-539 CNS it was more than 90 µM; in the assay with SK-MEL-28 melanoma, 56.2 µM; in the assay on SNB-19 CNS, more than 90 µM; in the assay on SW-620 colon it was 29.3 µM; with UACC-257 melanoma, more than 90 µM.
`CC1(Br)C(=O)NC(=O)N([C@H]2C[C@H](O)[C@@H](CO)O2)C1N=[N+]=[N-]` (stereo not given in full): the TGI in the assay with HCC-2998 colon, with HCT-15 colon, with K-562 leukemia, in the assay with NCI-H460 lung, in the assay with NCI-H522 lung and with OVCAR-4 ovarian was more than 100 µM in each case. The TGI with SF-295 CNS, in the assay on SF-539 CNS, with SK-MEL-28 melanoma, in the assay with SNB-19 CNS, in the assay on SR leukemia and in the assay with SW-620 colon was more than 100 µM throughout. For the same molecule, the TGI with UACC-257 melanoma is more than 100 µM.
Turning to `CCOC(=O)C1C(=O)CC(C)(O)C(C(=O)OCC)C1c1ccc(O)c(OC)c1` (stereo not given), the TGI with DU-145 prostate, with HCC-2998 colon, in the assay on HCT-15 colon, with K-562 leukemia, with MCF7 breast and in the assay with NCI-H460 lung was more than 100 µM throughout. The TGI in the assay on NCI-H522 lung, in the assay with OVCAR-4 ovarian, with PC-3 prostate, in the assay on SF-295 CNS, in the assay with SK-MEL-28 melanoma and in the assay with SNB-19 CNS was more than 100 µM throughout. In addition, the TGI with SR leukemia, in the assay on SW-620 colon and in the assay with UACC-257 melanoma was more than 100 µM in each case.
In the case of `O=C1c2ccccc2N2OC3C4CCC(C4)C3C12c1ccccc1` (stereo not given), the TGI in the assay on HCC-2998 colon, in the assay on HCT-15 colon, in the assay with K-562 leukemia, in the assay with NCI-H522 lung, in the assay with OVCAR-4 ovarian and in the assay on SF-295 CNS was more than 100 µM in each case. Also, the TGI in the assay with SF-539 CNS, in the assay with SK-MEL-28 melanoma, in the assay on SNB-19 CNS, in the assay on SR leukemia, with SW-620 colon and with UACC-257 melanoma was more than 100 µM throughout.
As for `S=C(NNC1=NCCCCN1)Nc1ccccc1`, the TGI in the assay with DU-145 prostate, in the assay on HCC-2998 colon, in the assay on HCT-15 colon, in the assay with K-562 leukemia, with MCF7 breast and with NCI-H460 lung was more than 100 µM each time. In addition, the TGI in the assay on NCI-H522 lung, in the assay with PC-3 prostate, in the assay on SF-295 CNS, in the assay with SF-539 CNS, in the assay on SK-MEL-28 melanoma and in the assay with SNB-19 CNS was more than 100 µM throughout. The TGI with SR leukemia and in the assay on UACC-257 melanoma was more than 100 µM each time.

The values above are taken from PubChem BioAssay (NCI).
